{"source": "patent US11267808B2", "about": "“Benzamide derivatives as PPAR-gamma modulators” (MEDIBIOFARMA, S.L., priority 2017, dated 2022)", "data": [{"molecular_target": "Human PPAR-gamma (Homo sapiens (Human), UniProt P37231)", "sequence (P37231 whole entry)": "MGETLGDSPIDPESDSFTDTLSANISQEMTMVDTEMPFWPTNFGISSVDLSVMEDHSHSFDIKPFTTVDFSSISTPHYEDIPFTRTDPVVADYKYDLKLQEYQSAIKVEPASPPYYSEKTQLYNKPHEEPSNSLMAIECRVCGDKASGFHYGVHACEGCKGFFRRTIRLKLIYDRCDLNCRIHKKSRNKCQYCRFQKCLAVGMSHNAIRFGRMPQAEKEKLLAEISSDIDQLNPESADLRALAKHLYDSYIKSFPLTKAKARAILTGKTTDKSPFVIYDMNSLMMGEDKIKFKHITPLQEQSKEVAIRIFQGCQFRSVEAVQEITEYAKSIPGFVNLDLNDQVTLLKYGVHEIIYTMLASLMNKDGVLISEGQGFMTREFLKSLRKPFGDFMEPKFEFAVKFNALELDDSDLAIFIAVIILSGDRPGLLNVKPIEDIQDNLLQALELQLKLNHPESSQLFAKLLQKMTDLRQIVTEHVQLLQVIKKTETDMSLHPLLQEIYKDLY", "assay": "Human PPAR-gamma (h) (agonist radioligand) binding assay", "details": "inhibition of radioligand specific binding; class ranges defined in μM", "experimental": "The compounds of the present invention were assayed for binding to the Human PPAR-gamma (h) (agonist radioligand) Assay and were tested at several concentrations for IC50 determination.\nCompound binding was calculated as a % inhibition of the binding of a radioactively labelled ligand specific for each target, as described in (FERRY, Gilles, et al. Binding of prostaglandins to human PPARγ: tool assessment and new natural ligands. European journal of pharmacology, 2001, vol. 417, no 1, p. 77-89).\nThe IC50 values (concentration causing a half-maximal inhibition of control specific binding) was determined by non-linear regression analysis of the competition curves generated with mean replicate values using Hill equation curve fitting\nwhere Y=specific binding, A=left asymptote of the curve, D=right asymptote of the curve, C=compound concentration, C50=IC50, and nH=slope factor. This analysis was performed using software developed at EUROFINS Cerep Company (Hill software) and validated by comparison with data generated by the commercial software SigmaPlot® 4.0 for Windows® (© 1997 by SPSS Inc.).", "units": {"IC50": "µM"}, "values": [{"smiles": "N#Cc1ccc(Cl)c(C(=O)Nc2ccnc(-c3ccccc3)c2)c1", "note": "[Example 1, 2-chloro-5-cyano-N-(2-phenylpyridin-4-yl)benzamide]", "IC50": "< 0.2"}, {"smiles": "N#Cc1ccc(Cl)c(C(=O)Nc2ccc(-c3ccccc3)nc2)c1", "note": "[Example 2, 2-chloro-5-cyano-N-(6-phenylpyridin-3-yl)benzamide]", "IC50": "< 0.2"}, {"smiles": "N#Cc1ccc(Cl)c(C(=O)Nc2ccnc(-c3ccc(F)cc3)c2)c1", "note": "[Example 3, 2-chloro-5-cyano-N-(2-(4-fluorophenyl)pyridin-4-yl)benzamide]", "IC50": "0.2 to 1"}, {"smiles": "N#Cc1ccc(Cl)c(C(=O)Nc2ccc(-c3ccc(F)cc3)nc2)c1", "note": "[Example 4, 2-chloro-5-cyano-N-(6-(4-fluorophenyl)pyridin-3-yl)benzamide]", "IC50": "< 0.2"}, {"smiles": "N#Cc1ccc(Cl)c(C(=O)Nc2ccc(-c3cccnc3)nc2)c1", "note": "[Example 5, N-([2,3′-bipyridin]-5-yl)-2-chloro-5-cyanobenzamide]", "IC50": "< 0.2"}, {"smiles": "N#Cc1ccc(Cl)c(C(=O)Nc2ccnc(-c3cccnc3)c2)c1", "note": "[Example 6, N-([2,3′-bipyridin]-4-yl)-2-chloro-5-cyanobenzamide]", "IC50": "1 to 50"}, {"smiles": "N#Cc1ccc(Cl)c(C(=O)Nc2ccc(-c3ccncc3)nc2)c1", "note": "[Example 7, N-([2,4′-bipyridin]-5-yl)-2-chloro-5-cyanobenzamide]", "IC50": "1 to 50"}, {"smiles": "N#Cc1ccc(F)c(C(=O)Nc2ccc(-c3cccnc3)nc2)c1", "note": "[Example 9, N-([2,3′-bipyridin]-5-yl)-5-cyano-2-fluorobenzamide]", "IC50": "< 0.2"}, {"smiles": "N#Cc1ccc(F)c(C(=O)Nc2ccc(-c3ccc(F)cc3)nc2)c1", "note": "[Example 10, 5-cyano-2-fluoro-N-(6-(4-fluorophenyl)pyridin-3-yl)benzamide]", "IC50": "< 0.2"}, {"smiles": "N#Cc1ccc(Cl)c(C(=O)Nc2ccc(-c3ccccn3)nc2)c1", "note": "[Example 13, N-([2,2′-bipyridin]-5-yl)-2-chloro-5-cyanobenzamide]", "IC50": "< 0.2"}, {"smiles": "CN1CCN(c2ccc(NC(=O)c3cc(C#N)ccc3Cl)cn2)CC1", "note": "[Example 14, 2-chloro-5-cyano-N-(6-(4-methylpiperazin-1-yl)pyridin-3-yl)benzamide]", "IC50": "1 to 50"}, {"smiles": "CN1CCN(c2cc(NC(=O)c3cc(C#N)ccc3Cl)ccn2)CC1", "note": "[Example 15, 2-chloro-5-cyano-N-(2-(4-methylpiperazin-1-yl)pyridin-4-yl)benzamide]", "IC50": "≥ 50"}, {"smiles": "N#Cc1ccc(Cl)c(C(=O)Nc2ccnc(N3CCOCC3)c2)c1", "note": "[Example 16, 2-chloro-5-cyano-N-(2-morpholinopyridin-4-yl)benzamide]", "IC50": "1 to 50"}, {"smiles": "N#Cc1ccc(Cl)c(C(=O)Nc2ccc(N3CCOCC3)nc2)c1", "note": "[Example 17, 2-chloro-5-cyano-N-(6-morpholinopyridin-3-yl)benzamide]", "IC50": "1 to 50"}]}]}
